Laboratory results reported in DBAASP.
≈ marks a conversion by molar mass, not a printed value. Where “and” joins values, the source holds several entries; their conditions need not be identical. Equal entries are not always repeated. Each block holds one compound with its values, some of them ahead of it.

Legend:
Test in all cases: ≥ marks a high value that may be exact or a test limit, other limits are often not marked, values filed in µg/mL are converted to µM
[1] = tested on: Candida albicans
[2] = tested on: Pseudomonas aeruginosa ATCC 27853
[3] = tested on: Staphylococcus aureus ATCC 49476
[4] = tested on: Staphylococcus aureus MR
[5] = tested on: Aspergillus flavus KCTC 6905
[6] = tested on: Aspergillus fumigatus KCTC 6145
[7] = tested on: Candida krusei CCARM 14017
[8] = tested on: Candida parapsilosis CCARM 14016
[9] = tested on: Candida tropicalis KCTC 7221
[10] = tested on: Fusarium verticillioides KCTC 6149
[11] = tested on: Trichosporon beigelii KCTC 7707
[12] = tested on: Acinetobacter baumannii ATCC 19606
[13] = tested on: Bacillus megaterium ATCC 13632
[14] = tested on: Bacillus subtilis ATCC 6051
[15] = tested on: Candida albicans ATCC 90028
[16] = tested on: Candida tropicalis ATCC 750
[17] = tested on: Cryptococcus neoformans ATCC 208821
[18] = tested on: Enterococcus faecium ATCC 35667
[19] = tested on: Escherichia coli ATCC 25922
[20] = tested on: Klebsiella pneumoniae ATCC 700603
[21] = tested on: Staphylococcus aureus ATCC 29213
[22] = tested on: Staphylococcus aureus ATCC 43300
[23] = tested on: Staphylococcus aureus VRSA1
[24] = tested on: Streptococcus pneumoniae ATCC 700677
[25] = tested on: Aeromonas salmonicida
[26] = tested on: Pseudomonas aeruginosa K799
[27] = tested on: Pseudomonas aeruginosa Z61
[28] = tested on: Salmonella enterica serovar typhimurium MS7953s
[29] = tested on: Salmonella enterica subsp. enterica serovar Typhimurium ATCC 14028s
[30] = tested on: Staphylococcus epidermidis C621
[31] = tested on: Vibrio anguillarum
[32] = tested on: Aeromonas veronii ATCC 35624
[33] = tested on: Aeromonas veronii CL0901
[34] = tested on: Aeromonas veronii X-1-06909
[35] = tested on: Candida albicans CMCC 98001
[36] = tested on: Escherichia coli CVCC 1515
[37] = tested on: Escherichia coli CVCC 195
[38] = tested on: Escherichia coli CVCC 25922
[39] = tested on: Escherichia coli CVCC O157
[40] = tested on: Pseudomonas aeruginosa CICC 21630
[41] = tested on: Salmonella enterica subsp. enterica serovar Enteritidis CVCC 3377
[42] = tested on: Salmonella enterica subsp. enterica serovar Pullorum CVCC 1789
[43] = tested on: Salmonella enterica subsp. enterica serovar Pullorum CVCC 1809
[44] = tested on: Salmonella enterica subsp. enterica serovar Pullorum CVCC 533
[45] = tested on: Salmonella enterica subsp. enterica serovar Typhimurium ATCC 14028
[46] = tested on: Staphylococcus aureus ATCC 25923
[47] = tested on: Staphylococcus aureus ATCC 546
[48] = tested on: Staphylococcus hyicus NCTC 10350
[49] = tested on: Staphylococcus hyicus

SMILES: CC[C@H](C)[C@H](NC(=O)[C@H](C)NC(=O)[C@H](CCCCN)NC(=O)CNC(=O)[C@H](C)NC(=O)[C@H](CO)NC(=O)[C@H](Cc1ccccc1)NC(=O)[C@H](CC(C)C)NC(=O)CNC(=O)CNC(=O)[C@@H](NC(=O)[C@@H](NC(=O)[C@H](Cc1cnc[nH]1)NC(=O)[C@H](Cc1cnc[nH]1)NC(=O)[C@@H](NC(=O)[C@@H](N)Cc1ccccc1)[C@@H](C)CC)[C@@H](C)CC)[C@@H](C)CC)C(=O)N[C@@H](Cc1cnc[nH]1)C(=O)N[C@@H](CCCN=C(N)N)C(=O)N[C@@H](Cc1cnc[nH]1)C(=O)N[C@@H](Cc1cnc[nH]1)C(=O)N[C@@H](CCCN=C(N)N)C(=O)N[C@@H](CCCN=C(N)N)C(=O)N[C@@H](CCCN=C(N)N)C(=O)N[C@@H](CCCN=C(N)N)C(=O)N[C@@H](CCCN=C(N)N)C(=O)O [FIHHIIGGLFSAGKAIHRHHRRRRR]
MIC [1]: 42.3 µM (≈ 128 µg/mL)
MIC [2]: 84.5 µM (≈ 256 µg/mL)
MIC [3]: ≥ 42.3 µM
MIC [4]: ≥ 169 µM

SMILES: CC[C@H](C)[C@H](NC(=O)CNC(=O)[C@H](CCC(N)=O)NC(=O)[C@H](C)NC(=O)[C@@H](NC(=O)[C@H](CCCCN)NC(=O)[C@H](CCCCN)NC(=O)[C@H](CC(C)C)NC(=O)[C@H](C)NC(=O)[C@H](CC(N)=O)NC(=O)[C@H](C)NC(=O)CN)C(C)C)C(=O)N[C@@H](Cc1cnc[nH]1)C(=O)N[C@@H](CCC(=O)O)C(=O)N[C@@H](C)C(=O)N[C@H](C(=O)N[C@@H](CCCCN)C(=O)N[C@@H](CC(C)C)C(=O)N[C@H](C(=O)N[C@@H](CC(N)=O)C(=O)N[C@@H](CC(N)=O)C(=O)N[C@@H](Cc1cnc[nH]1)C(=O)N[C@H](C(=O)N[C@@H](CCC(N)=O)C(N)=O)C(C)C)[C@@H](C)CC)[C@@H](C)CC [GANALKKVAQGIHEAIKLINNHVQ]
MIC [5]: ≥ 32 µM and 12 µM
MIC [6]: 24 µM and 16 µM
MIC [7]: 6 µM and 4 µM
MIC [8]: ≥ 64 µM
MIC [9]: 2 µM and 1.5 µM
MIC [10]: 24 µM and 16 µM
MIC [11]: 2 µM (≈ 5.13 µg/mL)

SMILES: CC[C@H](C)[C@H](NC(=O)[C@@H](N)CO)C(=O)NCC(=O)N[C@@H](CO)C(=O)N[C@@H](C)C(=O)N[C@@H](Cc1ccccc1)C(=O)N[C@@H](CCCCN)C(=O)N[C@@H](CCCCN)C(=O)N[C@@H](C)C(=O)N[C@@H](C)C(=O)N[C@@H](Cc1cnc[nH]1)C(=O)N[C@H](C(=O)NCC(=O)N[C@@H](CCCCN)C(=O)N[C@@H](Cc1cnc[nH]1)C(=O)N[C@H](C(=O)NCC(=O)N[C@@H](CCCCN)C(=O)N[C@@H](C)C(=O)N[C@@H](C)C(=O)N[C@@H](CC(C)C)C(=O)N[C@H](C(=O)N[C@@H](Cc1cnc[nH]1)C(=O)N[C@@H](Cc1ccc(O)cc1)C(=O)N[C@@H](CC(C)C)C(=O)N[C@@H](CC(N)=O)C(=O)O)[C@@H](C)O)C(C)C)C(C)C [SIGSAFKKAAHVGKHVGKAALTHYLN]
MIC [25]: 2.96 µM (≈ 8 µg/mL)
MIC [26]: 23.7 µM (≈ 64 µg/mL)
MIC [27]: 23.7 µM (≈ 64 µg/mL)
MIC [28]: 0.739 µM (≈ 2 µg/mL)
MIC [29]: 23.7 µM (≈ 64 µg/mL)
MIC [30]: 23.7 µM (≈ 64 µg/mL)
MIC [31]: 23.7 µM (≈ 64 µg/mL)

Now from value to compound, other results behind:

MIC [12]: > 167 µM
MIC [13]: 29.5 µM (≈ 45.2 µg/mL)
MIC [14]: ≥ 41.7 µM
MIC [15]: ≥ 83.3 µM
MIC [16]: ≥ 83.3 µM
MIC [17]: 14.7 µM (≈ 22.6 µg/mL)
MIC [18]: ≥ 41.7 µM
MIC [19]: > 167 µM
MIC [20]: > 167 µM
MIC [2]: > 167 µM
MIC [21]: > 83.3 µM
MIC [22]: > 83.3 µM
MIC [23]: ≥ 83.3 µM
MIC [24]: ≥ 83.3 µM
SMILES: CC[C@H](C)[C@H](N)C(=O)N[C@@H](Cc1ccccc1)C(=O)N[C@@H](Cc1c[nH]c2ccccc12)C(=O)N[C@@H](CC(C)C)C(=O)N[C@@H](Cc1ccccc1)C(=O)N[C@@H](CCCN=C(N)N)C(=O)NCC(=O)N[C@@H](CCCCN)C(=O)N[C@@H](C)C(=O)N[C@@H](CC(=O)O)C(=O)N[C@H](C(=O)N[C@@H](C)C(=O)N[C@@H](CC(C)C)C(N)=O)C(C)C [IFWLFRGKADVAL]

MIC [35]: ≥ 50 µM
MIC [36]: 1.56 µM (≈ 4 µg/mL)
MIC [37]: 3.12 µM (≈ 7.99 µg/mL)
MIC [38]: 3.12 µM (≈ 7.99 µg/mL)
MIC [39]: 3.12 µM (≈ 7.99 µg/mL)
MIC [40]: 12.5 µM (≈ 32 µg/mL)
MIC [41]: 0.781 µM (≈ 2 µg/mL)
MIC [42]: 6.25 µM (≈ 16 µg/mL)
MIC [43]: 3.12 µM (≈ 7.99 µg/mL)
MIC [44]: 6.25 µM (≈ 16 µg/mL)
MIC [45]: 6.25 µM (≈ 16 µg/mL)
MIC [46]: 12.5 µM (≈ 32 µg/mL)
MIC [22]: 12.5 µM (≈ 32 µg/mL)
MIC [47]: 6.25 µM (≈ 16 µg/mL)
MIC [48]: 25 µM (≈ 63.9 µg/mL)
MIC [49]: 12.5 µM (≈ 32 µg/mL)
SMILES: CC(C)[C@H](N)C(=O)N[C@@H](Cc1ccccc1)C(=O)N[C@@H](C)C(=O)N[C@@H](Cc1c[nH]c2ccccc12)C(=O)N[C@@H](CC(N)=O)C(=O)N[C@H](C(=O)N[C@H]1CSSC[C@@H](C(=O)N[C@@H](Cc2cnc[nH]2)C(=O)N[C@@H](CCCN=C(N)N)C(=O)N[C@@H](CCCN=C(N)N)C(=O)N[C@@H](C)C(=O)N[C@@H](CC(N)=O)C(N)=O)NC(=O)[C@H](C(C)C)NC(=O)[C@H](CCCN=C(N)N)NC(=O)[C@H](C(C)C)NC(=O)[C@H](C(C)C)NC(=O)[C@H](CC(N)=O)NC(=O)[C@H](CCCN=C(N)N)NC(=O)[C@H](Cc2ccc(O)cc2)NC(=O)[C@H](C(C)C)NC1=O)C(C)C [VFAWNVCVYRNVVRVCHRRAN]
MIC [32]: 6.25 µM (≈ 16 µg/mL)
MIC [33]: 12.5 µM (≈ 32 µg/mL)
MIC [34]: 12.5 µM (≈ 32 µg/mL)
